ChEMBL document CHEMBL4257541, “Development of subnanomolar-affinity serotonin 5-HT4 receptor ligands based on quinoline structures” (Medchemcomm, 2018)

Molecular target: 5-hydroxytryptamine receptor 4 (Cavia porcellus, UniProt O70528)
Experiment: Displacement of [3H]-GR113808 from 5-HT4R in Dunkin-Hartley guinea pig straitum nuclear membranes after 30 mins by filter binding method

5-hydroxytryptamine receptor 4, sequence (O70528 whole entry): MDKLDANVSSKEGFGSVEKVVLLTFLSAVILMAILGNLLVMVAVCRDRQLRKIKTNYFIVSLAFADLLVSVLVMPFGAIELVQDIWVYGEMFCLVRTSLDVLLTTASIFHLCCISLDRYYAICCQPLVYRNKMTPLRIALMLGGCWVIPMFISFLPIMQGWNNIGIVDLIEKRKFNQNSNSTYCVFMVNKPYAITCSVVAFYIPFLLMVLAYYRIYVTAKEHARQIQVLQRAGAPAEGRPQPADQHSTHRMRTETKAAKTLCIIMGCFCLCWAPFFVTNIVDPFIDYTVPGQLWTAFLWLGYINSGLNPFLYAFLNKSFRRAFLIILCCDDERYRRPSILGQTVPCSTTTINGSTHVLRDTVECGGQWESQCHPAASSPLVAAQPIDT

| Compound | Ki [nM] |
| --- | --- |
| CCCCN1CCC(COC(=O)c2cc(Cl)nc3ccccc23)CC1 | 0.86 |
| COc1cc(C(=O)OCCN2CCC(NC(=O)OC(C)(C)C)CC2)c2ccccc2n1 | 304 |
| CCCCN1CCC(CNC(=O)c2cc(OC)nc3ccccc23)CC1 | > 1000 |
| CCCCN1CCC(COC(=O)c2ccnc3ccccc23)CC1 | 1.5 |
| COc1cc(C(=O)OCCN2CCCCC2)c2ccccc2n1 | 15 |
| O=C(NCCN1CCCCC1)c1cc(Cl)c2ccccc2n1 | > 1000 |
| CCCCN1CCC(CNC(=O)c2cc(OC)c3ccccc3n2)CC1 | 148 |
| CCCCN1CCC(CNC(=O)c2ccc3cccc(O)c3n2)CC1 | 76 |
| COc1cc(C(=O)OCCN2CCC(CO)CC2)c2ccccc2n1 | 8 |
| CCCCN1CCC(COC(=O)c2cc(OC)nc3ccccc23)CC1 | 0.62 |
| CCCCN1CCC(COC(=O)c2cc(C3CC3)nc3ccccc23)CC1 | 0.44 |
| COc1cc(C(=O)NCCN2CCCCC2)c2ccccc2n1 | > 1000 |
| O=C(NCCCN1CCCCC1)c1cc(Cl)c2ccccc2n1 | > 1000 |
| CCCCN1CCC(CNC(=O)c2cc(Cl)c3ccccc3n2)CC1 | 39 |
| CCCCN1CCC(CCC(=O)c2cc(Cl)c(N)cc2OC)CC1 | 3.9 |
